# From patent publication US11667606B2, “Thyromimetics” (Autobahn Therapeutics, Inc., priority 2019, dated 2023)
# Experiments:
# TRβ = molecular target: T1, TRβ (Homo sapiens, UniProt P10828); experiment: Thyroid-hormone reporter-gene assay, TRβ (Gal4 DBD hybrid, luciferase, HEK293); format: cell-based; details: for T3-SI, selectivity index (SI) calculated as EC50 (TRα)/EC50 (TRβ): TRβ over TRα selectivity from reporter-gene EC50 values; for EC50: reporter cells derived from HEK293, 24 hr incubation, luciferase readout
# T1 construct: expressed in transfected cells; host or cells: HEK293
# T1 sequence (P10828 217-461 limits assumed): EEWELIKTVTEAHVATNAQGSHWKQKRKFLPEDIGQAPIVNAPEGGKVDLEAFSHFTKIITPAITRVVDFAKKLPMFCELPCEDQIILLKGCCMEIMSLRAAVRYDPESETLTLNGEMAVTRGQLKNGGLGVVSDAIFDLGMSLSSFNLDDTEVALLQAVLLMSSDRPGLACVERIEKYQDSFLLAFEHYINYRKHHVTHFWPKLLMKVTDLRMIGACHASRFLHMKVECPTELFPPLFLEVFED
# Experimental: (§1) Compounds were tested for thyroid-hormone receptor activity using TR reporter-gene assays. Reporter cells used in the assays express a TR-receptor hybrid (either TRα or TRβ) in which the native N-terminal DNA binding domain (DBD) has been replaced with that of the yeast Gal4 DBD. The reporter gene, firefly luciferase, is functionally linked to the Gal4 upstream activation sequence (UAS). Both cell lines were derived from human embryonic kidney (HEK293).
# (§2) A suspension of reporter cells was prepared in cell recovery medium containing 10% charcoal-stripped FBS, and dispensed into assay plates. The plates were pre-incubated for 6 hours in a cell culture incubator (37° C./5% CO2/85% humidity).
# (§3) These intermediate stocks were subsequently diluted directly into compound screening medium containing 10% charcoal-stripped FBS to generate “2×-concentration” treatment media (containing 0.2, 0.4 or 0.8% DMSO).
# (§4) At the end of the pre-incubation period, culture media were discarded from the assay plates, and all wells received 100 μl of compound screening medium. 100 μl of each of the previously prepared “2×-concentration” treatment media were dispensed into duplicate assay wells, thereby achieving the desired final treatment concentrations. The final concentration of DMSO in all assay wells was 0.1, 0.2 or 0.4%. Assay plates were incubated for 24 hr in a cell culture incubator (37° C./5% CO2/85% humidity).
# (§5) At the 24 h assay endpoint, treatment media were discarded and […] of luciferase detection reagent was added. Relative luminometer units (RLUs) were quantified from each assay well.
# TRα = molecular target: T2, TRα (Homo sapiens, UniProt P10827); experiment: Thyroid-hormone reporter-gene assay, TRα (Gal4 DBD hybrid, luciferase, HEK293); format: cell-based; details: reporter cells derived from HEK293, 24 hr incubation, luciferase readout
# T2 construct: expressed in transfected cells; host or cells: HEK293
# T2 sequence (P10827 128-410 isoform P10827-2 limits assumed): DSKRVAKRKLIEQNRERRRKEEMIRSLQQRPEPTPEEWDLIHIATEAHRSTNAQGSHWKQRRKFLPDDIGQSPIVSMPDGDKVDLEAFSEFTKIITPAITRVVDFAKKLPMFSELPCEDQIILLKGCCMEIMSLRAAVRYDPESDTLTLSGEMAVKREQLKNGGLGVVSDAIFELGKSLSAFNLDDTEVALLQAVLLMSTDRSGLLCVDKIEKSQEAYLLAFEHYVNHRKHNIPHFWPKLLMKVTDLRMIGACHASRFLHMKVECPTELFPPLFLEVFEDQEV
# Experimental: as §1, §2, §3, §4, §5
"T3-SI, selectivity index (SI) calculated as EC50 (TRα)/EC50 (TRβ) (TRβ)",EC50 (TRβ) [µM],EC50 (TRα) [µM],Compound
++ (3X < T3-SI ≤ 30X),> 1,> 1,"O=C(O)COc1cc(Cl)c(Cc2ccc(O)c(Cc3cccc(F)c3)c2)c(Cl)c1 [Compound 86, 2-(3,5-dichloro-4-(3-(3-fluorobenzyl)-4-hydroxybenzyl)phenoxy)acetic Acid]"
++ (3X < T3-SI ≤ 30X),0.1 to 1,0.1 to 1,"O=C(O)COc1cc(Cl)c(Cc2ccc(O)c(Cc3ccc(F)cc3F)c2)c(Cl)c1 [Compound 88, 2-(3,5-dichloro-4-(3-(2,4-difluorobenzyl)-4-hydroxybenzyl)phenoxy)acetic Acid]"
++ (3X < T3-SI ≤ 30X),> 1,> 1,"O=C(O)COc1cc(Cl)c(Cc2ccc(O)c(Cc3ccc(Cl)cc3)c2)c(Cl)c1 [Compound 90, 2-(3,5-dichloro-4-(3-(4-chlorobenzyl)-4-hydroxybenzyl)phenoxy)acetic Acid]"
++ (3X < T3-SI ≤ 30X),0.01 to 0.1,0.1 to 1,"CCC(c1ccc(F)cc1)c1cc(Cc2c(Cl)cc(OCC(=O)O)cc2Cl)ccc1O (stereo not drawn) [Compound 98, 2-(3,5-dichloro-4-(3-(1-(4-fluorophenyl)propyl)-4-hydroxybenzyl)phenoxy)acetic Acid]"
+++ (T3-SI > 30X),0.1 to 1,> 1,"CCCC(c1ccc(F)cc1)c1cc(Cc2c(Cl)cc(OCC(=O)O)cc2Cl)ccc1O (stereo not drawn) [Compound 102, 2-(3,5-dichloro-4-(3-(1-(4-fluorophenyl)butyl)-4-hydroxybenzyl)phenoxy) acetic Acid]"
++ (3X < T3-SI ≤ 30X),0.01 to 0.1,0.1 to 1,"CC(C)C(c1ccc(F)cc1)c1cc(Cc2c(Cl)cc(OCC(=O)O)cc2Cl)ccc1O (stereo not drawn) [Compound 104, 2-(3,5-dichloro-4-(3-(1-(4-fluorophenyl)-2-methylpropyl)-4-hydroxybenzyl)phenoxy)acetic Acid]"
++ (3X < T3-SI ≤ 30X),0.01 to 0.1,0.1 to 1,"CC(C)(c1ccc(F)cc1)c1cc(Cc2c(Cl)cc(OCC(=O)O)cc2Cl)ccc1O [Compound 105, 2-(3,5-dichloro-4-(3-(2-(4-fluorophenyl)propan-2-yl)-4-hydroxybenzyl)phenoxy)acetic Acid]"
++ (3X < T3-SI ≤ 30X),0.01 to 0.1,0.1 to 1,"O=C(O)COc1cc(Cl)c(Cc2ccc(O)c(C(c3ccc(F)cc3)C3CC3)c2)c(Cl)c1 (stereo not drawn) [Compound 107, 2-(3,5-dichloro-4-(3-(cyclopropyl(4-fluorophenyl)methyl)-4-hydroxybenzyl)phenoxy)acetic Acid]"
+++ (T3-SI > 30X),0.1 to 1,> 1,"O=C(O)COc1cc(Cl)c(Cc2ccc(O)c(C(c3ccc(F)cc3)C3CCC3)c2)c(Cl)c1 (stereo not drawn) [Compound 109, 2-(3,5-dichloro-4-(3-(cyclobutyl(4-fluorophenyl)methyl)-4-hydroxybenzyl)phenoxy)acetic Acid]"
++ (3X < T3-SI ≤ 30X),0.1 to 1,0.1 to 1,"O=C(O)COc1cc(Cl)c(Cc2ccc(O)c(C3CCCc4cc(F)ccc43)c2)c(Cl)c1 (stereo not drawn) [Compound 111, 2-(3,5-dichloro-4-(3-(6-fluoro-1,2,3,4-tetrahydronaphthalen-1-yl)-4-hydroxybenzyl)phenoxy)acetic Acid]"
++ (3X < T3-SI ≤ 30X),> 1,> 1,"O=C(O)COc1cc(Cl)c(Cc2ccc(O)c(C3CCc4cc(F)ccc43)c2)c(Cl)c1 (stereo not drawn) [Compound 113, 2-(3,5-dichloro-4-(3-(5-fluoro-2,3-dihydro-1H-inden-1-yl)-4-hydroxybenzyl)phenoxy)acetic Acid]"
++ (3X < T3-SI ≤ 30X),0.01 to 0.1,0.1 to 1,"Cc1cc(OCC(=O)O)cc(Cl)c1Cc1ccc(O)c(Cc2ccc(F)cc2)c1 [Compound 115, 2-(3-chloro-4-(3-(4-fluorobenzyl)-4-hydroxybenzyl)-5-methylphenoxy) acetic Acid]"
++ (3X < T3-SI ≤ 30X),0.1 to 1,> 1,"O=C(O)COc1cc(Cl)c(Cc2ccc(O)c(Cc3ccoc3)c2)c(Cl)c1 [Compound 119, 2-(3,5-dichloro-4-(3-(furan-3-ylmethyl)-4-hydroxybenzyl)phenoxy)acetic Acid]"
++ (3X < T3-SI ≤ 30X),0.1 to 1,> 1,"O=C(O)COc1cc(Cl)c(Cc2ccc(O)c(Cc3ccsc3)c2)c(Cl)c1 [Compound 121, 2-(3,5-dichloro-4-(4-hydroxy-3-(thiophen-3-ylmethyl)benzyl)phenoxy) acetic Acid]"
++ (3X < T3-SI ≤ 30X),0.1 to 1,> 1,"O=C(O)COc1cc(Cl)c(Cc2ccc(O)c(Cc3cccs3)c2)c(Cl)c1 [Compound 123, 2-(3,5-dichloro-4-(4-hydroxy-3-(thiophen-2-ylmethyl)benzyl)phenoxy) acetic Acid]"
++ (3X < T3-SI ≤ 30X),0.01 to 0.1,0.1 to 1,O=C(O)COc1cc(Cl)c(Cc2ccc(O)c(C(c3ccc(F)cc3)C(F)(F)F)c2)c(Cl)c1 (stereo not drawn) [Compound 125]
++ (3X < T3-SI ≤ 30X),0.01 to 0.1,0.1 to 1,"O=C(O)COc1cc(Cl)c(Cc2ccc(O)c(C(CC(F)(F)F)c3ccc(F)cc3)c2)c(Cl)c1 (stereo not drawn) [Compound 127, 2-(3,5-dichloro-4-(4-hydroxy-3-(3,3,3-trifluoro-1-(4-fluorophenyl)propyl)benzyl)phenoxy)acetic Acid]"
+++ (T3-SI > 30X),0.1 to 1,> 1,"COCC(c1ccc(F)cc1)c1cc(Cc2c(Cl)cc(OCC(=O)O)cc2Cl)ccc1O (stereo not drawn) [Compound 129, 2-(3,5-dichloro-4-(3-(1-(4-fluorophenyl)-2-methoxyethyl)-4-hydroxybenzyl)phenoxy)acetic Acid]"
++ (3X < T3-SI ≤ 30X),< 0.01,0.01 to 0.1,"Cc1cc(OCC(=O)O)cc(Br)c1Cc1ccc(O)c(C(C)c2ccc(F)cc2)c1 (stereo not drawn) [Compound 131, 2-(3-bromo-4-(3-(1-(4-fluorophenyl)ethyl)-4-hydroxybenzyl)-5-methylphenoxy)acetic Acid]"
++ (3X < T3-SI ≤ 30X),0.01 to 0.1,0.1 to 1,"Cc1cc(OCC(=O)O)cc(C)c1Cc1ccc(O)c(Cc2ccc(F)cc2)c1 [Compound 133, 2-(4-(3-(4-fluorobenzyl)-4-hydroxybenzyl)-3,5-dimethylphenoxy)acetic Acid]"
++ (3X < T3-SI ≤ 30X),> 1,> 1,"O=C(O)COc1cc(Cl)c(Cc2ccc(O)c(CCc3ccc(F)cc3)c2)c(Cl)c1 [Compound 135, 2-(3,5-dichloro-4-(3-(4-fluorophenethyl)-4-hydroxybenzyl)phenoxy)acetic Acid]"
++ (3X < T3-SI ≤ 30X),0.1 to 1,> 1,"O=C(COc1cc(Cl)c(Cc2ccc(O)c(-c3cccc(OC(F)F)c3)c2)c(Cl)c1)N1CC1 [Compound 138, 1-(aziridin-1-yl)-2-(3,5-dichloro-4-((3′-(difluoromethoxy)-6-hydroxy-[1,1′-biphenyl]-3-yl)methyl)phenoxy)ethan-1-one]"
